# Assays:
# [1] = target: T1, Peptidyl-prolyl cis-trans isomerase NIMA-interacting 1 (Homo sapiens, UniProt Q13526); assay: Inhibition of His-tagged PIN1 (unknown origin) TAMRA labelled Bth-D-pThr-Pip-L-2Nal as substrate incubated for 30 mins by fluorescence polarization analysis
# PANC-1 = assay: Antiproliferative activity against human PANC-1 cells assessed as cell growth inhibition incubated for 96 hrs by Cell-Titer Glo assay; conditions: PANC-1, 96 h
# MDA-MB-468 = assay: Antiproliferative activity against human MDA-MB-468 cells assessed as cell growth inhibition incubated for 96 hrs by Cell-Titer Glo assay; conditions: MDA-MB-468, 96 h
# Huh-7 = assay: Antiproliferative activity against human Huh-7 cells assessed as cell growth inhibition incubated for 96 hrs by Cell-Titer Glo assay; conditions: Huh-7, 96 h
# [2] = target: T1, Peptidyl-prolyl cis-trans isomerase NIMA-interacting 1; assay: Binding affinity to GST-tagged PIN1 (unknown origin) assessed as dissociation constant by SPR analysis
# [3] = target: Protein cereblon/Peptidyl-prolyl cis-trans isomerase NIMA-interacting 1 (Homo sapiens, UniProt Q13526+Q96SW2); assay: PROTAC activity at CRBN/PIN1 in human MDA-MB-468 cells assessed as induction of PIN1 degradation incubated for 24 hrs by high content analysis
# Chain of Protein cereblon/Peptidyl-prolyl cis-trans isomerase NIMA-interacting 1 (Q13526 whole entry): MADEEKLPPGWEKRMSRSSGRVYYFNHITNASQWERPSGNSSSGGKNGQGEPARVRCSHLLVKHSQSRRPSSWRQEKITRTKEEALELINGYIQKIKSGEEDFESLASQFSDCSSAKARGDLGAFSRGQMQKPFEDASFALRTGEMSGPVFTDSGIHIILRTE
# Chain of Protein cereblon/Peptidyl-prolyl cis-trans isomerase NIMA-interacting 1 (Q96SW2 whole entry): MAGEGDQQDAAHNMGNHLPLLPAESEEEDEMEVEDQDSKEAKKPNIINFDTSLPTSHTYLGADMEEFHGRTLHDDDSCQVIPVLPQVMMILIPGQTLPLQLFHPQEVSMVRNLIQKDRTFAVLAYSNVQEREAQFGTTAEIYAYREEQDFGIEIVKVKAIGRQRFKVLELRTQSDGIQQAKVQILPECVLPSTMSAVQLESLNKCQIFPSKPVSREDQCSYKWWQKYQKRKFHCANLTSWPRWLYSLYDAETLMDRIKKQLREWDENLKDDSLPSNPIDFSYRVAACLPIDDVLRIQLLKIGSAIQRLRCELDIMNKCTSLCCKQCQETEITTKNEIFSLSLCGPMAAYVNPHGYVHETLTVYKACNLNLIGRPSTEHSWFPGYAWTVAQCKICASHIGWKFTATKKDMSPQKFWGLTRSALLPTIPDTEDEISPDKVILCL
# [4] = target: T1, Peptidyl-prolyl cis-trans isomerase NIMA-interacting 1
# [5] = Efflux ratio of permeability across basolateral to apical side over apical to basolateral side in MDCK cells incubated for 120 mins by LC-MS/MS analysis; conditions: dog
# [6] = Permeability across apical to basolateral side in MDCK cells incubated for 120 mins by LC-MS/MS analysis; conditions: dog
# [7] = target: T1, Peptidyl-prolyl cis-trans isomerase NIMA-interacting 1; assay: Inhibition of recombinant human PIN1 prolyl isomerase activity measured after 180 mins
# T1 sequence (Q13526 whole entry): as the sequence (Q13526 whole entry) above
IC50 [1],GI50 (PANC-1),GI50 (MDA-MB-468),GI50 (Huh-7),also measured,SMILES
> 100 µM,,,,,CNC(=O)C(Cc1cn(-c2ccc(-c3ccc(C#N)cc3)cc2)nn1)NC(=O)Cc1ccccc1 (stereo unspecified)
0.36 µM,> 30 µM,4.6 µM,> 30 µM,Kd [2]: 0.37 µM,CNC(=O)C(Cc1cn(-c2ccc(-c3ccc(C#N)cc3)cc2)nn1)NC(=O)C1(c2ncccc2C)CC1 (stereo unspecified)
> 100 µM,,,,,CC(C)(C)NC(=O)C(Cc1cn(-c2ccc(-c3ccc(C#N)cc3)cc2)nn1)NC(=O)C1(c2ccccc2)CC1 (stereo unspecified)
> 100 µM,,,,,CNC(=O)C(Cc1cn(-c2ccc(C3CCN(C)CC3)cc2)nn1)NC(=O)C1(c2ccccc2)CC1 (stereo unspecified)
> 100 µM,,,,,CNC(=O)C(Cc1cn(-c2ccc(-c3ccc(C#N)cc3)cc2)nn1)NC(=O)C1(c2ccccc2)CCCCC1 (stereo unspecified)
,> 30 µM,16.5 µM,20.7 µM,DC50 [3]: 0.071 µM,Cc1cccnc1C1(C(=O)NC(Cc2cn(-c3ccc(-c4ccc(C#N)cc4)cc3)nn2)C(=O)NCCCCOc2cccc3c2C(=O)N(C2CCC(=O)NC2=O)C3=O)CC1 (stereo unspecified)
,> 30 µM,2.7 µM,5.8 µM,DC50 [3]: 0.02 µM,Cc1cccnc1C1(C(=O)NC(Cc2cn(-c3ccc(-c4ccc(C#N)cc4)cc3)nn2)C(=O)NCCCOc2cccc3c2C(=O)N(C2CCC(=O)NC2=O)C3=O)CC1 (stereo unspecified)
> 100 µM,,,,,CNC(=O)C(Cc1cn(-c2ccc(-c3ccc(C#N)cc3)cc2)nn1)NC(=O)C1(c2ccccc2)CCCC1 (stereo unspecified)
,> 30 µM,> 30 µM,> 30 µM,DC50 [3]: 0.019 µM,Cc1cccnc1C1(C(=O)NC(Cc2cn(-c3ccc(-c4ccc(C#N)cc4)cc3)nn2)C(=O)NC2CCN(CCCCCOc3cccc4c3C(=O)N(C3CCC(=O)NC3=O)C4=O)CC2)CC1 (stereo unspecified)
> 100 µM,,,,,CNC(=O)C(Cc1cn(-c2ccc(-c3ccc(C#N)cc3)cc2)nn1)NC(=O)C1(c2ccccc2)CCC1 (stereo unspecified)
,,,,Ki [4]: 0.017 µM,CC(C)(C)CN(C(=O)CCl)C1CCS(=O)(=O)C1 (stereo unspecified)
> 10 µM,,,,Kd [2]: 39.3 µM,CNC(=O)C(Cc1cn(-c2ccn(C)n2)nn1)NC(=O)C1(c2ccccc2)CC1 (stereo unspecified)
0.25 µM,23.1 µM,13.8 µM,15.4 µM,efflux ratio at 2 h [5]: 4.77; Papp A→B at 2 h [6]: 0.78 ×10⁻⁶ cm/s; Kd [2]: 0.12 µM,CNC(=O)/C(=C\c1cn(-c2ccc(-c3ccc(C#N)cc3)cc2)nn1)NC(=O)C1(c2ccccc2C)CC1
,9.3 µM,36.8 µM,9.9 µM,Papp A→B at 2 h [6]: 0.01 ×10⁻⁶ cm/s,Cc1ccccc1C1(C(=O)NC(Cc2cn(-c3ccc(-c4ccc(C#N)cc4)cc3)nn2)C(=O)NC2CCN(C)CC2)CC1 (stereo unspecified)
2.09 µM,,,,Kd [2]: 2.93 µM,CNC(=O)C(Cc1cn(-c2ccc(-c3ccc(C#N)cc3)cc2)nn1)NC(=O)C(C)(C)c1ccccc1 (stereo unspecified)
> 100 µM,,,,Kd [2]: > 50 µM,CNC(=O)C(Cc1cn(Cc2cc3ccccc3s2)nn1)NC(=O)C1(c2ccccc2)CC1 (stereo unspecified)
,> 30 µM,> 30 µM,> 30 µM,DC50 [3]: 0.041 µM,Cc1cccnc1C1(C(=O)NC(Cc2cn(-c3ccc(-c4ccc(C#N)cc4)cc3)nn2)C(=O)NC2CCN(CCCOc3cccc4c3C(=O)N(C3CCC(=O)NC3=O)C4=O)CC2)CC1 (stereo unspecified)
,,,,IC50 [7]: 0.64 µM,CC(C)(C)c1ccc(S(=O)(=O)/N=C2\C=C(SCC(=O)O)C(=O)c3ccccc32)cc1

# From ChEMBL document CHEMBL5584361, “Re-Evaluating PIN1 as a Therapeutic Target in Oncology Using Neutral Inhibitors and PROTACs” (J Med Chem, 2024)
